Activity calls are given as the source filed them. The rule behind the calls is not given here.
System: Clostridioides difficile clinical isolate growth, OD600, 24 h
Assay: C. difficile growth inhibition, confirmation, 4-point retest (AID 1224921)

Row | SMILES | AC50
1 | O=C(C[C@@H]1CC[C@@H]2[C@H](COC[C@H](O)CN2C(=O)Nc2ccc(Cl)c(Cl)c2)O1)NCc1ccccc1 | 2.01 µM
2 | C[C@@H]1CN([C@H](C)CO)C(=O)c2cc(NC(=O)Nc3ccc(C(F)(F)F)cc3)ccc2O[C@@H](C)CCCCO[C@@H]1CN(C)CC1CCCCC1 | 14.6 µM
3 | CO[C@H]1CN(C)C(=O)c2cc(NC(=O)Nc3cc(Cl)cc(Cl)c3)ccc2OC[C@@H](C)NC[C@@H]1C | 14.7 µM
4 | O=C(C[C@@H]1CC[C@H]2[C@@H](COC[C@H](O)CN2S(=O)(=O)c2ccc(Cl)cc2)O1)NCc1ccc(Cl)c(Cl)c1 | 30.9 µM
5 | CNC(=O)C[C@H]1CC[C@@H]2[C@H](COC[C@@H](O)CN2C(=O)Nc2ccc(Cl)c(Cl)c2)O1 | 8.58 µM
6 | C[C@@H]1CCCCO[C@H](CN(C)Cc2ccc3c(c2)OCO3)[C@@H](C)CN([C@@H](C)CO)C(=O)c2cc(NC(=O)Nc3ccc(C(F)(F)F)cc3)ccc2O1 | 20.9 µM
7 | CO[C@H](CN(C)C(=O)C1CCOCC1)[C@H](C)CN(C(=O)Nc1ccc(C(F)(F)F)cc1)[C@H](C)CO | 5.96 µM
8 | CO[C@H]1CN(C)C(=O)c2cc(NC(=O)Nc3ccc(Cl)c(Cl)c3)ccc2OC[C@H](C)NC[C@H]1C | 9.51 µM
9 | N#C[C@@H]1[C@H](c2ccc(C#Cc3ccc(F)cc3)cc2)[C@@H](CO)N1C(=O)C1CCCC1 | > 70 µM (inactive)
10 | CO[C@@H](CN(C)C(=O)C1CC1)[C@H](C)CN(C(=O)Nc1ccc(C(F)(F)F)cc1)[C@@H](C)CO | 3.04 µM
11 | C[C@H]1CN([C@@H](C)CO)C(=O)c2cccc(NC(=O)Nc3ccc(C(F)(F)F)cc3)c2O[C@@H]1CN(C)C(=O)Nc1ccccc1 | 32.2 µM
12 | CO[C@@H]1CN(C)C(=O)c2ccc(NC(=O)Nc3cc(Cl)cc(Cl)c3)cc2OC[C@H](C)NC[C@@H]1C | 8.07 µM
13 | O=C(C[C@@H]1CC[C@H]2[C@@H](COC[C@H](O)CN2C(=O)Nc2ccc(Cl)c(Cl)c2)O1)NCc1ccc(Cl)cc1 | 2.61 µM
14 | CO[C@H](CN(C)C(=O)C1CCOCC1)[C@@H](C)CN(C(=O)Nc1ccc(C(F)(F)F)cc1)[C@@H](C)CO | 3.16 µM
15 | CCC(=O)N[C@@H]1CC[C@H](CCNC(=O)Nc2ccc(C(F)(F)F)cc2)O[C@@H]1CO | 4.29 µM
16 | O=C(C[C@H]1CC[C@H]2[C@@H](COC[C@H](O)CN2C(=O)Nc2cc(Cl)cc(Cl)c2)O1)N1CCOCC1 | 4.04 µM
17 | C[C@@H]1CCCCO[C@@H](CN(C)CC2CC2)[C@@H](C)CN([C@H](C)CO)C(=O)c2cc(NC(=O)Nc3ccc(C(F)(F)F)cc3)ccc2O1 | 35.5 µM
18 | O=C(C[C@H]1CC[C@@H]2[C@H](COC[C@@H](O)CN2C(=O)Nc2ccc(Cl)c(Cl)c2)O1)NC1CCC1 | 8.68 µM
19 | O=C(C[C@@H]1CC[C@H]2[C@@H](COC[C@@H](O)CN2CC2CCCCC2)O1)NCc1ccc(Cl)cc1 | > 60 µM (inactive)
20 | O=C(C[C@@H]1CC[C@H]2[C@@H](COC[C@@H](O)CN2C(=O)Nc2ccc(C(F)(F)F)cc2)O1)NCC1CCCCC1 | 3.56 µM
21 | O=C(C[C@H]1CC[C@@H]2[C@H](COC[C@@H](O)CN2C(=O)Nc2cc(Cl)cc(Cl)c2)O1)N1CCOCC1 | 15.3 µM
22 | C[C@@H]1CN([C@H](C)CO)C(=O)c2cccc(NC(=O)Nc3ccc(C(F)(F)F)cc3)c2O[C@@H]1CN(C)Cc1ccc(-c2ccccc2)cc1 | 18.3 µM
23 | O=C(NCC[C@@H]1CC[C@H](NC(=O)C2CCCCC2)[C@H](CO)O1)Nc1ccc(Cl)cc1 | 30 µM
24 | O=C(C[C@H]1CC[C@@H]2[C@H](COC[C@H](O)CN2C(=O)Nc2ccc(C(F)(F)F)cc2)O1)NC1Cc2ccccc2C1 | 6.36 µM
25 | CCNC(=O)C[C@@H]1CC[C@H]2[C@@H](COC[C@@H](O)CN2C(=O)Nc2ccc(C(F)(F)F)cc2)O1 | 10.4 µM
26 | CO[C@H]1CN(C)C(=O)c2cc(NC(=O)Nc3ccc(Cl)c(Cl)c3)ccc2OC[C@H](C)NC[C@@H]1C | 8.68 µM

Row | SMILES | AC50
27 | CN(C)CC(=O)N[C@@H]1CC[C@@H](CCNC(=O)Nc2ccc(C(F)(F)F)cc2)O[C@@H]1CO | 4.58 µM
28 | O=C(NCC[C@H]1CC[C@H](NS(=O)(=O)c2ccc(F)cc2)[C@@H](CO)O1)Nc1ccc(Cl)cc1 | 16.7 µM
29 | C[C@H]1CN([C@@H](C)CO)S(=O)(=O)c2ccc(C#CC3CCCC3)cc2O[C@@H]1CN(C)Cc1cccnc1 | > 60 µM (inactive)
30 | Cc1noc(C)c1NC(=O)Nc1cccc2c1O[C@H](CN(C)Cc1ccc(Oc3ccccc3)cc1)[C@H](C)CN([C@@H](C)CO)C2=O | 9.38 µM
31 | CO[C@H](CN(C)S(=O)(=O)c1cn(C)cn1)[C@@H](C)CN(C(=O)Nc1ccc(C(F)(F)F)cc1)[C@@H](C)CO | 2.93 µM
32 | COc1ccccc1S(=O)(=O)N(C)C[C@H]1OCc2ccccc2-c2c(n(C)c3ccccc23)C(=O)N([C@H](C)CO)C[C@@H]1C | > 60 µM (inactive)
33 | O=C(C[C@H]1CC[C@H]2[C@@H](COC[C@H](O)CN2C(=O)Nc2ccc(Cl)c(Cl)c2)O1)NCc1ccc(F)cc1 | 2.08 µM
34 | COc1ccc(CN(C)C[C@H]2Oc3c(NC(=O)Nc4ccc(C(F)(F)F)cc4)cccc3C(=O)N([C@@H](C)CO)C[C@H]2C)cc1 | 1.65 µM
35 | O=C(C[C@H]1CC[C@H]2[C@@H](COC[C@H](O)CN2C(=O)Nc2ccc(Cl)c(Cl)c2)O1)NC1CCC1 | 2.03 µM
36 | COc1ccc(S(=O)(=O)Nc2cccc3c2O[C@H](CN(C)Cc2ccc(Oc4ccccc4)cc2)[C@H](C)CN([C@@H](C)CO)C3=O)cc1 | 3.67 µM
37 | O=C(NCC[C@H]1CC[C@@H](NC(=O)c2cccnc2)[C@H](CO)O1)Nc1ccc(C(F)(F)F)cc1 | 2.42 µM
38 | CCCN(C)C[C@H]1OCCCC[C@@H](C)Oc2ccc(NC(=O)Nc3ccc(C(F)(F)F)cc3)cc2C(=O)N([C@@H](C)CO)C[C@H]1C | 10.5 µM
39 | O=C(C[C@@H]1CC[C@@H]2[C@H](COC[C@H](O)CN2C(=O)Nc2ccc(C(F)(F)F)cc2)O1)NCCc1ccncc1 | 3.46 µM
40 | O=C(C[C@@H]1CC[C@H]2[C@@H](COC[C@@H](O)CN2C(=O)Nc2cc(Cl)cc(Cl)c2)O1)N1CCOCC1 | 10.7 µM
41 | O=C(C[C@H]1CC[C@@H]2[C@H](COC[C@H](O)CN2C(=O)Nc2ccc(C(F)(F)F)cc2)O1)NCCc1ccncc1 | 3.55 µM
42 | COc1cccc(C#Cc2ccc([C@@H]3[C@@H](C#N)N(C(=O)C4CCC4)[C@H]3CO)cc2)c1 | > 60 µM (inactive)
43 | CO[C@H]1CN(C)C(=O)c2ccc(NC(=O)c3cccc(F)c3)cc2OC[C@@H](C)N(C(C)=O)C[C@@H]1C | > 60 µM (inactive)
44 | CC(=O)N[C@@H]1CC[C@@H](CCNC(=O)Nc2ccc(C(F)(F)F)cc2)O[C@@H]1CO | 8.39 µM
45 | CO[C@@H](CN(C)C(=O)C1CCOCC1)[C@@H](C)CN(C(=O)Nc1ccc(C(F)(F)F)cc1)[C@H](C)CO | 6.17 µM
46 | O=C(C[C@H]1CC[C@H]2[C@@H](COC[C@@H](O)CN2C(=O)Nc2cc(Cl)cc(Cl)c2)O1)N1CCOCC1 | 9.57 µM
47 | N#C[C@H]1[C@@H](c2ccc(C#CC3CCCC3)cc2)[C@H](CO)N1C(=O)Nc1ccc(F)cc1 | > 60 µM (inactive)
48 | C[C@H]1CN([C@@H](C)CO)S(=O)(=O)c2ccc(C#CC3CCCCC3)cc2O[C@H]1CN(C)C | 16.4 µM
49 | CCNC(=O)C[C@@H]1CC[C@@H]2[C@H](COC[C@H](O)CN2C(=O)Nc2ccc(C(F)(F)F)cc2)O1 | 11.8 µM
50 | Cc1noc(C)c1S(=O)(=O)Nc1ccc2c(c1)C(=O)N([C@@H](C)CO)C[C@H](C)[C@@H](CN(C)Cc1ccc3c(c1)OCO3)OCCCC[C@@H](C)O2 | 11.7 µM
51 | COc1ccccc1CNC(=O)C[C@H]1CC[C@H]2[C@@H](COC[C@@H](O)CN2C(=O)Nc2ccc(C(F)(F)F)cc2)O1 | 2.4 µM
52 | CO[C@@H](CN(C)Cc1cc(F)ccc1F)[C@H](C)CN(C(=O)Nc1ccc(C(F)(F)F)cc1)[C@H](C)CO | 5.25 µM

— PubChem BioAssay AID1224921 (Broad Institute, 2016)
